Data on 16 molecules can be found in PubChem BioAssay (NCI).

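Growth conditions: 96-well plates. Treatment: test compound, 48 hours, 5 concentrations. Analysis: linear interpolation between bracketing concentrations; unreached endpoints set to highest concentration. TGI: total growth inhibition.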 Where a SMILES comes first, the peptide text is derived from it. [ ]: non-standard residue; d: D form. The star is where a group is joined. Phe(4-NO2) = N[CH](Cc1ccc([N+](=O)[O-])cc1)C(=O)O; Cbz = O=C(OCc1ccccc1)*

Assay in all cases: DTP human tumour cell line panel, 48 h
The test system of test [1] is A549 NSCLC.
The test system of test [2] is HCT-116 colon.
The test system of test [3] is HL-60(TB) leukemia.
The subject of test [4] is HOP-92 NSCLC.
For test [5], the system named is HT29 colon.
Test [6] relates to KM12 colon.
The subject of test [7] is LOX IMVI melanoma.
For test [8], the system named is MALME-3M melanoma.
In test [9] the test system is NCI-H226 lung.
Test [10] concerns NCI-H460 lung.
Test [11] relates to OVCAR-5 ovarian.
Test [12] relates to RPMI-8226 leukemia.
For test [13], the system named is SF-268 CNS.
For test [14], the system named is SK-MEL-28 melanoma.
Test [15] has as its system SN12C renal.
For test [16], the system named is SNB-75 CNS.
For test [17], the system named is U251 CNS.
Test [18] deals with UACC-257 melanoma.
In test [19] the test system is MCF7 breast.
The subject of test [20] is OVCAR-4 ovarian.

On to `CCSC1=N/C(=C\c2ccco2)C(NN)=N1`, for which the total growth inhibition concentration (TGI) in test [1], in [2], in test [3], in [4], in [5] and in test [6] was greater than 50 µM in each case. The TGI in test [7], in [8], in test [9], in test [10], in test [11] and in test [12] was greater than 50 µM each time. In addition, the TGI in test [13], in test [14], in test [15], in [16], in test [17] and in [18] was greater than 50 µM in each case.

Regarding `CC1(C)C=Cc2c(cc3oc4ccc5c(c4c(=O)c3c2O)C=CC(C)(C)O5)O1`, the TGI in test [1], in test [2], in test [4], in [5], in test [6] and in test [7] was greater than 100 µM in each case. Also, the TGI in test [8], in test [19], in test [9], in [20], in [11] and in test [12] was greater than 100 µM in each case. Moreover, the concentration for total growth inhibition (TGI) in test [13], in [14], in test [15], in [17] and in [18] was greater than 100 µM each time.

On to `CC1(C)Oc2ccc3c(=O)c(-c4ccccc4)c(-c4ccccc4)oc3c2C1C(=O)O` (stereo not drawn), for which the TGI in test [1], in [2], in test [5], in test [8], in test [19] and in test [9] was greater than 100 µM each time. Further, the total growth inhibition concentration (TGI) in test [20], in test [11], in test [13], in test [15], in test [17] and in test [18] was greater than 100 µM each time.

As to `c1ccc(N=C(N2CCOCC2)N(CCN2CCOCC2)c2ccccc2)cc1`, the total growth inhibition concentration (TGI) in test [1], in [2], in [5], in test [6], in test [7] and in [8] was greater than 100 µM each time. For the same molecule, the TGI in test [19], in test [9], in test [10], in test [20], in test [12] and in [13] was greater than 100 µM each time. Besides, the TGI in [14], in test [15], in test [16], in test [17] and in [18] was greater than 100 µM in each case.

For the molecule `COc1ccc(/C=N/n2c(=O)[nH]c3ccccc3c2=O)cc1`, the TGI in [1], in [2], in test [4], in [5], in test [6] and in test [7] was greater than 100 µM in each case. In addition, the concentration for total growth inhibition (TGI) in test [19], in [9], in test [10], in [11], in test [12] and in [13] was greater than 100 µM in each case. The concentration for total growth inhibition (TGI) in [14], in test [15], in test [16], in test [17] and in test [18] was greater than 100 µM throughout.

With `Cc1n[n+](CC(=O)c2ccccc2)c2sc(N)nn12`, the total growth inhibition concentration (TGI) in [1], in [2], in test [5], in test [6], in test [7] and in test [8] was greater than 100 µM throughout. Besides, the concentration for total growth inhibition (TGI) in [19], in test [9], in test [10], in test [20], in test [11] and in test [12] was greater than 100 µM in each case. Also, the total growth inhibition concentration (TGI) in test [13], in [14], in test [15], in [16], in [17] and in [18] was greater than 100 µM in each case.

Regarding `Cc1nnc2sc(Cl)nn12`, the total growth inhibition concentration (TGI) in [1] was determined as 72.8 µM; in test [2], 26.2 µM; in test [5], 32.9 µM; in test [6] it was 28.6 µM; in test [7] it was 28.5 µM; in test [8], 85.6 µM. Moreover, the TGI in [19] was 29.5 µM; in [9], 86.2 µM; in test [10], 37.4 µM; in [20], 34.3 µM; in [11], 44.5 µM; in test [12] it was greater than 100 µM. In addition, the TGI is 34.2 µM in test [14], greater than 100 µM in [15], greater than 100 µM in test [16] and 31.4 µM in test [17].

Consider `CN(C)C(=S)N1C(=S)N(c2ccccc2)C(=Nc2ccccc2)C1=Nc1ccccc1`, for which the TGI in test [1], in test [2], in [3], in test [4], in test [5] and in [6] was greater than 100 µM throughout. For the same molecule, the total growth inhibition concentration (TGI) in [7], in test [8], in test [9], in [10], in test [20] and in [11] was greater than 100 µM throughout. The concentration for total growth inhibition (TGI) in test [12], in [13], in test [14], in test [15], in test [16] and in test [17] was greater than 100 µM throughout. Moreover, in [18], the TGI is greater than 100 µM.

On to `O=C1c2sc(-c3ccc(F)cc3)cc2-n2cccc21`, for which the TGI was greater than 100 µM in [1]; 58.7 µM in [2]; greater than 100 µM in test [5]; greater than 100 µM in test [6]; greater than 100 µM in test [7]; greater than 100 µM in [8]. Besides, the TGI in [19] is greater than 100 µM; in [9] it was 82.2 µM; in test [10], greater than 100 µM; in [20], greater than 100 µM; in test [11] it was greater than 100 µM; in [12], greater than 100 µM. Besides, the concentration for total growth inhibition (TGI) in [13] is 52.1 µM; in test [14], greater than 100 µM; in test [15], 49.6 µM; in [16], 43.7 µM; in test [17] it was 40.2 µM; in test [18], greater than 100 µM.

With `Oc1cccc(-c2ccc3c4c2O[C@H]2c5[nH]c6ccccc6c5C[C@@]5(O)[C@@H](C3)N(CC3CC3)CC[C@]425)c1`, the TGI in test [1] was 3.22 µM; in [2], 3.22 µM; in test [3] it was 4.03 µM; in test [4], 4.42 µM; in test [5], 3.09 µM; in [6], 3.5 µM. Further, the total growth inhibition concentration (TGI) is 3.19 µM in [7]; 3.38 µM in test [8]; 28.9 µM in test [9]; 2.96 µM in test [20]; 4.3 µM in test [11]; 3.06 µM in [13]. The molecule also registered a TGI in test [15] of 3.04 µM.

As for `CCc1n[nH]c(=O)n1N1C(=O)CCC1=O`, the TGI in [1], in [2], in [5], in test [6], in [7] and in [8] was greater than 100 µM in each case. Besides, the total growth inhibition concentration (TGI) in test [19], in test [9], in [10], in test [20], in test [11] and in [12] was greater than 100 µM in each case. Further, the TGI in [13], in [14], in [15], in test [16], in test [17] and in [18] was greater than 100 µM each time.

Consider `O=C(CSc1nnc(Cc2ccccc2)o1)Nc1cccc(Cl)c1`, for which the concentration for total growth inhibition (TGI) in test [1], in test [2], in test [3], in test [5], in test [6] and in [7] was greater than 100 µM in each case. Further, the TGI in [8], in test [9], in [10], in test [20], in [11] and in test [12] was greater than 100 µM each time. Moreover, the TGI in test [13] was greater than 100 µM; in test [14] it was greater than 100 µM; in test [15] it was greater than 100 µM; in test [16] it was 89.5 µM; in test [17] it was greater than 100 µM; in test [18] it was greater than 100 µM.

For `CCOC(=O)CCC(NC(=O)OCc1ccccc1)C(=O)NC(CCC(=O)OCC)C(=O)NC(Cc1ccc([N+](=O)[O-])cc1)C(=O)NC(CCC(=O)OCC)C(=O)NC(CCC(=O)OCC)C(=O)OCC` (stereo not drawn) (Cbz-E(OEt)E(OEt)[Phe(4-NO2)]E(OEt)E(OEt)-OEt; configuration not given here), the total growth inhibition concentration (TGI) in test [1], in test [2], in test [5], in test [6], in test [7] and in [8] was greater than 100 µM each time. The concentration for total growth inhibition (TGI) in test [19], in [10], in test [20], in test [11], in [12] and in test [14] was greater than 100 µM in each case. Moreover, the TGI in test [15], in test [16], in test [17] and in [18] was greater than 100 µM in each case.

Regarding `Cc1ccc2nc(N/N=C/c3ccc(C)s3)cc(C)c2c1`, the total growth inhibition concentration (TGI) in test [1] was 21.1 µM; in test [2] it was 12.3 µM; in test [4] it was 21 µM; in [5], 12.4 µM; in test [6] it was 16.1 µM; in test [7] it was 14.4 µM. Besides, the concentration for total growth inhibition (TGI) in test [8] is 32 µM; in test [19], 20 µM; in [9], 31.7 µM; in test [20], 24.2 µM; in test [11] it was 22 µM; in test [12] it was 56.6 µM. Moreover, the TGI in test [13] turned out to be 35.4 µM; in test [14], 28.9 µM; in test [15], 25.3 µM; in test [17] it was 27.6 µM; in [18], 19.9 µM.

On to `Cc1cc2nc3c(C#N)c(-c4ccccc4)/c(=C\Nc4ccc(Cl)cc4)c(=O)n3c2cc1C`, for which the concentration for total growth inhibition (TGI) in test [1], in test [2], in test [6], in test [7], in [8] and in test [19] was greater than 100 µM each time. The total growth inhibition concentration (TGI) in test [9], in test [10], in test [20], in test [11], in test [12] and in [13] was greater than 100 µM in each case. In addition, the total growth inhibition concentration (TGI) in [14], in [15], in test [16], in test [17] and in test [18] was greater than 100 µM throughout.

Consider `O=C(Nc1cc2c(=O)[nH]c3ccccc3c2oc1=O)c1cnccn1`, for which the TGI in [1], in [2], in test [4], in [5], in [6] and in test [7] was greater than 100 µM in each case. Moreover, the TGI in [8], in test [19], in test [9], in test [10], in test [20] and in [11] was greater than 100 µM each time. For the same molecule, the total growth inhibition concentration (TGI) in test [14], in [15], in test [16], in test [17] and in [18] was greater than 100 µM in each case.
